# From paper PMC4581723, “Evaluation of In Vitro Activity of the Class I PI3K Inhibitor Buparlisib (BKM120) in Pediatric Bone and Soft Tissue Sarcomas” (PLoS ONE, 2015)
# How the values were obtained:
# PI3K = test system: PI3K; set-up: method as in PMID 22188813; settings: cited from earlier work
# KHOS = assay: Cell viability assay (MTT), 72 h; type: cell-based; settings: KHOS (OS), PIK3CA WT, read-out: Buparlisib cell viability IC50
# A4573 = assay: Cell viability assay (MTT), 72 h; type: cell-based; settings: A4573 (ES), PIK3CA WT, read-out: Buparlisib cell viability IC50
# TC-174 = assay: Cell viability assay (MTT), 72 h; type: cell-based; settings: TC-174 (ES), PIK3CA WT, read-out: Buparlisib cell viability IC50
# MNNG = assay: Cell viability assay (MTT), 72 h; type: cell-based; settings: MNNG (OS), read-out: Buparlisib cell viability IC50
# HT161 = assay: Cell viability assay (MTT), 72 h; type: cell-based; settings: HT161 (OS), PIK3CA WT, read-out: Buparlisib cell viability IC50
# 6647 = assay: Cell viability assay (MTT), 72 h; type: cell-based; settings: 6647 (ES), PIK3CA WT, read-out: Buparlisib cell viability IC50
# A673 = assay: Cell viability assay (MTT), 72 h; type: cell-based; settings: Homo sapiens, A673 (ES), PIK3CA WT, read-out: Buparlisib cell viability IC50
# cleaved PARP = assay: Immunoblot of PARP cleavage (apoptosis); type: cell-based
# Source text: The primary antibodies used for these studies were rabbit anti-PTEN, rabbit anti-phospho-Akt (Ser473), rabbit anti-phospho-Akt (Thr308), mouse anti-Akt (pan), rabbit anti-phospho-p44/42 MAPK (Erk1/2) (T202/[…] on Erk1, […]/[…] on Erk2), mouse anti-p44/42 MAPK (Erk1/2), mouse anti-phospho-p70 S6 Kinase (Thr389), rabbit anti-p70 S6 Kinase, rabbit anti-phospho-4E-BP1 (Thr37/46), rabbit anti-4E-BP1, rabbit anti-STAT3 (Y705), mouse anti-STAT3, and rabbit anti-cleaved PARP from Cell Signaling Technology; and mouse anti-β-actin from Sigma. Secondary antibodies conjugated to HRP were sheep anti-mouse IgG from GE Healthcare and goat anti-rabbit IgG from Santa Cruz Biotechnology. Secondary antibodies conjugated to infrared dyes were IRDye 800CW goat anti-mouse IgG and IRDye 680RD goat anti-rabbit IgG from LI-COR Biosciences. Fluorescent westerns were imaged using the Odyssey Infrared Imaging System (LI-COR Biosciences). Signals were quantified by measuring the integrated intensity values of each band using Odyssey software (LI-COR Biosciences). […] This occurs as a result of the ability of buparlisib to inhibit tubulin polymerization at higher concentrations.
# [1] = test system: ES (TC-174, A4573), OS (KHOS, MNNG), and RMS (RD) colonies; assay: Soft agar assay (anchorage independent growth); type: cell-based; settings: 14 days
# Source text: After 14 days of growth, colonies were stained with 0.005% crystal violet, imaged, and quantified using ImageJ. […] Increasing concentrations reduced both soft agar colony number and size (Fig 5A). Cell growth was inhibited within a narrower range than observed for anchorage dependent growth. […] (A) Plot of number and size of ES (TC-174, […]), OS (KHOS, MNNG), and RMS (RD) colonies formed in soft agar in the presence of DMSO or increasing concentrations of buparlisib. Columns represent the average of three replicates, error bars represent standard deviation. (B) Representative pictures of TC-174 soft agar colonies. (C) Immunoblot analysis of cleaved PARP in ES (TC-174, TC-32, […]), OS (KHOS), and RMS (RD, SJCRH30) treated with increasing doses of buparlisib for 24 hours. (D) Cell cycle analysis after 24 hours of buparlisib treatment of ES (TC-174, […]), OS (KHOS), and RMS (RD) cell lines. Data are the mean of two independent experiments.
# SJSA = assay: Cell viability assay (MTT), 72 h; type: cell-based; settings: SJSA (OS), PIK3CA WT, read-out: Buparlisib cell viability IC50
# TTC-475 = assay: Cell viability assay (MTT), 72 h; type: cell-based; settings: TTC-475 (ES), PIK3CA WT, read-out: Buparlisib cell viability IC50
# 5838 = assay: Cell viability assay (MTT), 72 h; type: cell-based; settings: 5838 (ES), PIK3CA WT, read-out: Buparlisib cell viability IC50
compound,measurement,setting,value
Nc1cc(C(F)(F)F)c(-c2cc(N3CCOCC3)nc(N3CCOCC3)n2)cn1 [Buparlisib],specificity to PI3K versus other protein kinases,PI3K,at least 50 fold
same,IC50,KHOS,1570 nM
same,IC50,A4573,1560 nM
same,IC50,TC-174,1040 nM
same,IC50,MNNG,1600 nM
same,IC50,HT161,1080 nM
same,IC50,6647,1010 nM
same,IC50,A673,1780 nM
same,concentrations resulting in increased PARP cleavage (apoptosis),"cleaved PARP; 24 hours of drug treatment, sarcoma cell lines",greater than 1.0 μM
same,induction of apoptosis (PARP cleavage),"cleaved PARP; ES cell lines, 24 h",potent induction of apoptosis
same,induction of apoptosis (PARP cleavage),"cleaved PARP; OS and RMS cell lines, 24 h",modest
same,apoptosis as measured by PARP cleavage,"cleaved PARP; combination with NVP-AEW541, A4573 cells, all dose levels, 24 hours",increased apoptosis
same,apoptosis (PARP cleavage),"cleaved PARP; combination with rapamycin, A4573 cells, 24 h",did not increase apoptosis
same,apoptosis as measured by PARP cleavage compared to buparlisib alone,"cleaved PARP; combined with trametinib, A673 cells, 24 h",no increase in apoptosis
same,concentrations at which no soft agar colony formation occurred,[1],greater than 2 μM
same,concentrations with minimal effects on soft agar colony formation,[1],less than 1 μM
same,IC50,SJSA,1450 nM
same,IC50,TTC-475,1020 nM
same,IC50,5838,1610 nM
